Assay results taken from patent US5728686A, “Alkylxanthine phosphonates and alkylxanthine phosphine oxides and their use as pharmaceuticals” (Hoechst Aktiengesellschaft, priority 1996, dated 1998).
In brackets after ≈: the same amount, converted by molar mass.

Experiments:
[1] = tested on: isolated guinea pig trachea, agonist calcium ionophore A23187; experiment: antagonist of calcium ionophore A23187-induced contraction of isolated guinea pig trachea; format: cell-based; conditions: Cavia porcellus, 37° C., read-out: Anticontractile action (trachea), Ca ionophore: concentration range for dilatation corresponding to ED50 range
Text: (§1) 3. Activity as antagonist of the contraction of isolated guinea pig trachea
(§2) The compounds of the formula I are used as antagonists of the contraction of isolated guinea pig trachea. The agonists employed were PGF2α (Upjohn, Germany), calcium ionophore A23187 (Calbiochem, Bad Soden, Germany), and substance P (American Peptide Comp., USA):
b) Calcium ionophore A23187 (Calbiochem, Bad Soden) acts by increased uptake of calcium ions, and an activation of all calcium-dependent signal cascades in the cell. Lipoxygenase inhibitors, in particular, and generally antiinflammatory substances show effects in this model.
(§3) Preparation of the organ sections and experimental procedure:
(§4) The guinea pig is sacrificed by means of terminal laughing gas anaesthesia. The trachea is exposed along its entire length and cut into 15 individual cartilage rings. 5 rings in each case are tied together to give a chain and fixed in the organ bath under a preload of 3 g. After an equilibration time of 45 minutes, a contraction is produced using the agonist. The antagonist (test preparation) is added cumulatively on the plateau of the maximum. Evaluation is carried out in % force change relative to the contraction maximum. The experimental procedure is carried out at 37° C.; the physiological nutrient solution used is a modified Krebs-Henseleit solution through which is bubbled 95% by volume of O2, 5% by volume of CO2.
(§5) Experimental animals: albino guinea pigs (Hattersheim Animal Breeding Institute, Kastengrund, Germany), weight: 200 to 300 g, sex male or female.
(§6) Vehicle: double-distilled water, ethanol or isopropanol; administration: into the organ bath number of administration: cumulative, in SP individual doses
(§7) All numerical values are indicated in the unit μg/ml and relate to the concentration range of the tested compound of the formula I according to the invention (see example numbers in Table 1) which is necessary in order to cause a dilatation which corresponds to the ED50 range.

[2] = tested on: isolated guinea pig lung strips, Platelet activating factor (PAF); experiment: antagonist of PAF-induced contraction of isolated guinea pig lung strips; format: cell-based; conditions: Cavia porcellus, read-out: Anticontractile action (lung), PAF: concentration range corresponding to the IC50 value
Text: (§8) 4. Activity as an antagonist of the contraction of isolated guinea pig lung strips
(§9) The test carried out is based on the same principle as the test indicated in the pharmacological test 3; however, lung strips are used here.
as §3
(§10) The guinea pig is sacrificed under laughing gas anaesthesia. The entire pulmonary tract is exposed starting from the trachea. The lobes of the lung are cut in a circular fashion such that 3 mm wide strips are formed. The strips of the upper lobes are divided in order to obtain a total of six approximately equal size strips. The strips are suspended in the organ baths under a preload of 4 g. The nutrient solutions used are modified Krebs Henseleit solutions. When using "Platelet activating factor" (PAF) as an […], the composition of this solution corresponds to that for the agonist SP in "Test 3"; for the agonist LTD4 a Krebs Henseleit solution as in the case of the agonist KCl (Test 3) is used. 95% by volume O2, 5% by volume CO2 is used for bubbling through the bath; the bath temperature is 37° C. The experimental procedure is carried out in a therapeutically cumulative methodology, using the dosage graduations 1, 3, 6 and 10 μg/ml.
(§11) The experimental animals, organ bath, vehicles and manner of administration correspond to that stated in pharmacological test 3.
(§12) All numerical values are indicated in the unit μg/ml and relate to the concentration range of tested compound of the formula I (see example numbers in Table 1) which is necessary in order to cause a contraction which corresponds to the IC50 value.

[3] = tested on: isolated guinea pig trachea, agonist substance P; experiment: antagonist of substance P-induced contraction of isolated guinea pig trachea; format: cell-based; conditions: Cavia porcellus, individual doses, 37° C., read-out: Anticontractile action (trachea), SP antagonism: concentration range for dilatation corresponding to ED50 range
Text: as §1, §2
The antagonism is possible on the one hand due to specific receptor antagonists, and on the other hand also due to inhibition of the subsequent signal pathway. Preparations which directly or indirectly increase the intracellular concentration of cyclic nucleotides in particular show spasmolytic properties here.
as §3, §4, §5, §6, §7

[4] = tested on: isolated guinea pig trachea, agonist PGF2α; experiment: antagonist of PGF2α-induced contraction of isolated guinea pig trachea; format: cell-based; conditions: Cavia porcellus, 37° C., read-out: Anticontractile action (trachea), PGF2α: concentration range for dilatation corresponding to ED50 range
Text: as §1, §2
Inhibition of contractions which are induced by this cyclooxygenase product is only possible by competitive antagonism at the receptor or of the subsequent signal pathway.
as §3, §4, §5, §6, §7

[5] = tested on: isolated guinea pig lung strips, leukotriene D4 (LTD4); experiment: antagonist of LTD4-induced contraction of isolated guinea pig lung strips; format: cell-based; conditions: Cavia porcellus, read-out: Anticontractile action (lung), LTD4: concentration range corresponding to the IC50 value
Text: as §8, §9, §3, §10, §11, §12

phosphodiesterase III = experiment: inhibition of phosphodiesterase III activity; format: biochemical; conditions: at 100 μM
Protocol: 5. Inhibition of phosphodiesterase III activity
The test is carried out using phosphodiesterase from Boehringer Mannheim (Mannheim, Germany), Order No. 108 243 according to the method of T. SAEKI, I. SAITO, Biochem. Pharm. 46, No. 5, […], pages 833-839.
All numerical values are indicated in % inhibition of the enzyme activity at 100 μM of the corresponding compound of the formula I.

[6] = tested on: muscle group (gastrocnemius, plantaris and soleus) of the immobilized right rear extremity; experiment: rat muscle function test: direct electrical stimulation of muscle group after 3 weeks' immobilization; format: in vivo, male Wistar rats; conditions: oral, 1x per day for 3 weeks, as a rule 25 mg/kg, ≤-12% classified as active; for Force (force under the contraction curve, right/left difference): isometric stimulation, control difference approx. 25%; for Work (performed work, right/left difference): isotonic stimulation, control approx. -25%
Text: (§13) 1. Activity in the rat muscle function test
(§14) Male Wistar rats (body weight about 300 g) were kept under standard conditions with feed and water ad libitum. The right rear extremity was immobilized by fitting a kind of "shoe" to the animals under short-term anaesthesia. Two ergonomically fitted halves of the "shoe" were cast from a liquid plastic material which is also used for the production of dental prostheses, these were put onto the animal under brief anaesthesia and joined with the aid of a wire. The material is light but hard, so that the animals cannot gnaw the material, and the "shoe" can be opened at any time to examine the condition of the immobilized extremity. The two halves were moreover padded out with chamois leather in order to avoid compressions and possible injuries due to rubbing. The system also has the advantage that the angle of immobilization is standardized in all animals; this would not be possible with a plaster cast. The chosen angle allows the animals to take up a normal sitting position despite the "shoe" and also to carry the body weight using this extremity. Only complete stretching or bending of the leg is impossible.
(§15) After 3 weeks' immobilization of the right rear extremity and simultaneous oral administration of test preparations (1× per day using a stomach tube; as a rule 25 mg/kg of body weight, in carboxymethylcellulose, the animals were weighed and anaesthetized with pentobarbital (35 mg/kg i.p.). Functional parameters were measured during direct electrical stimulation of a muscle group (gastrocnemius, plantaris and soleus). This muscle group, merely called "muscle" in the following, was exposed at the ankle tendon and tied to a force transducer via the tendon.
To determine the contractile force, the muscles were stimulated isometrically, i.e. a preload of 0.5N was applied and the muscle was stimulated by means of a series of electrical pulses, which led to a maximum contraction, every 0.7 sec for 80 msec for a period of 15 min. […] The area under this contraction curve was evaluated and the difference in percent between the right atrophic and left normal muscle compared (force under the contraction curve as difference in percent (Δ%)). The difference in the control group is approximately 25%.
An isotonic muscle stimulation was used to determine the performed work of the muscle over time. In this type of measurement, the shortening of the muscle during contraction is used as a basis. To this end, a preload which corresponds to the body weight was applied to the muscles. A series of stimulation pulses (80 msec) were triggered every 3 sec and the muscle was stimulated for 15 min. The data (contraction force and distance travelled) were converted to the work performed in the unit J using an automated system. The difference in the work performed between the immobilized atrophic and the normal muscle in the control animals was approximately -25%.
Values which are positive indicate that the functional parameters of the immobilized muscle were better than those of the contralateral normal muscle.

soleus muscle = experiment: rat muscle function test: muscle weight (atrophy of immobilized extremity); format: in vivo, male Wistar rats; conditions: oral, 1x per day for 3 weeks, as a rule 25 mg/kg, difference ≤25% classified as an effect
Text: as §13, §14
In spite of this, a significant decrease in the skeletal muscle mass (atrophy) of the immobilized extremity occurred, to be precise up to -35% in comparison with the contralateral nonimmobilized rear extremity. As the soleus muscle was the most severely affected, the changes in muscle weight after administration of preparation shown in Table 1 relate to this muscle. A difference of ≤25% between the right immobilized and left non-immobilized rear extremity was classified as an effect.
as §15

[7] = tested on: Endotoxin (LPS) from Salmonella abortus equi; experiment: effect on endotoxin fatality (LPS-induced septic shock); format: in vivo, female NMRI mice; conditions: 25 mg/kg i.p. at the same time as LPS 60 mg/kg i.p.; 72 hours; vs placebo control
Protocol: 2. Test for effect on endotoxin fatality
Individual injections of lipopolysaccharide (LPS), from gram-negative bacteria, lead via a series of various symptoms to septic shock, which usually turns out to be fatal. Endotoxin (LPS) from Salmonella abortus equi in a dose of 60 mg/kg i.p. leads to shock and to death with at most 72 h p.a. (the dose of 60 mg/kg corresponds to approximately 1.20 mg of LPS/animal).
The experimental animals used are female NMRI mice from the Hoechst AG/Hattersheim animal breeding unit having a body weight of 22 to 24 g.
The test substances administered intraperitoneally (i.p.) in an administration volume of 10 ml/kg at the same time as the LPS. The number of surviving animals after 72 hours' LPS administration is indicated in comparison to a placebo control. The number of tested animals per group is 5; dose 25 mg/kg.

Compound | EC50 [1] [µg/mL] | IC50 [2] [µg/mL] | EC50 [3] [µg/mL] | EC50 [4] [µg/mL] | IC50 [5] [µg/mL] | PDE III Inhibition (phosphodiesterase III) [%] | Force (force under the contraction curve, right/left difference) [6] | Work (performed work, right/left difference) [6] | Muscle weight (right/left difference) (soleus muscle) | Inhibition of mortality [7] [%]
CCOP(=O)(CCCCn1cnc2c1c(=O)n(CC)c(=O)n2C)OCC [Example 4, Diethyl [4-(1-ethyl-3-methylxanthin-7-yl)butyl]phosphonate] | > 10 | 1 to 3 (≈ 2.59 to 7.76 µM) | 10 to 30 (≈ 25.9 to 77.6 µM) | > 10 |  |  |  |  |  | 
CCOP(=O)(CCCCn1c(=O)c2c(ncn2Cc2ccccc2)n(C)c1=O)OCC [Example 23, Diethyl [4-(7-benzyl-3-methylxanthin-1-yl)butyl]phosphonate] | > 10 | 1 to 3 (≈ 2.23 to 6.69 µM) | 10 to 30 (≈ 22.3 to 66.9 µM) | > 10 | 1 to 3 (≈ 2.23 to 6.69 µM) | 65 |  |  |  | 
CCOP(=O)(CCCCn1c(=O)c2[nH]cnc2n(C)c1=O)OCC [Example 24, Diethyl [4-(3-methylxanthin-1-yl)-butyl]phosphonate] |  |  | 30 to 60 (≈ 83.7 to 167 µM) | > 10 |  |  | +6 Δ % | -5 Δ % | -20 Δ % | 100
CCOP(=O)(CCCCn1c(=O)c2c(ncn2CC)n(C)c1=O)OCC [Example 30, Diethyl [4-(7-ethyl-3-methylxanthin-1-yl)butyl]phosphonate] | 10 (≈ 25.9 µM) | 3 to 6 (≈ 7.76 to 15.5 µM) | 10 to 30 (≈ 25.9 to 77.6 µM) | > 10 | 6 to 10 (≈ 15.5 to 25.9 µM) |  | +2 Δ % | +5 Δ % | 0 Δ % | 
CCOP(=O)(CCCn1c(=O)c2c(ncn2CC)n(C)c1=O)OCC [Example 34, Diethyl [3-(7-ethyl-3-methylxanthin-1-yl)propyl]phosphonate] |  |  |  |  |  | 82 | -5 Δ % | -11 Δ % |  | 60
CCOP(=O)(CCCn1c(=O)c2c(ncn2CCOC)n(C)c1=O)OCC [Example 35, Diethyl [3-(7-methoxyethyl-3-methylxanthin-1-yl)propyl]phosphonate] | > 10 | 3 to 6 (≈ 7.46 to 14.9 µM) | 30 to 60 (≈ 74.6 to 149 µM) |  |  |  |  |  |  | 
CCCn1cnc2c1c(=O)n(CCCCP(=O)(OCC)OCC)c(=O)n2CC [Example 38, Diethyl [4-(3-ethyl-7-propylxanthin-1-yl)butyl]phosphonate] | 10 (≈ 24.1 µM) | 1 to 3 (≈ 2.41 to 7.24 µM) | 10 to 30 (≈ 24.1 to 72.4 µM) | > 10 |  |  | -10 Δ % | -3 Δ % |  | 60
CCCn1cnc2c1c(=O)n(CCCP(=O)(OCC)OCC)c(=O)n2C1CC1 [Example 39] |  |  |  |  | 3 to 6 (≈ 7.27 to 14.5 µM) | 65 |  |  |  | 100
CCCCn1cnc2c1c(=O)n(CCCP(=O)(OCC)OCC)c(=O)n2CCCC [Example 40, Diethyl [3-(3,7-dibutylxanthin-1-yl)propyl]phosphonate] |  |  |  |  |  |  |  |  |  | 100
